According to PubChem BioAssay AID330 (DTP/NCI, 2004):
Where “and” joins values, the source holds several entries; their conditions need not be identical. Equal values may be shown once. Inconclusive results and toxic doses are left out.

Tested on: P388 leukemia ip, CD2F1 mice, survival T/C
Test: NCI In Vivo Anticancer Drug Screen. Data for tumor model P388 Leukemia (intraperitoneal) in CD2F1 (CDF1) mice
Conditions: endpoint: median survival time, higher = longer survival
Procedure, shortened: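 Mice carrying the transplanted tumor received test compound or vehicle. Survival was recorded in each group, and the value is the treated-group measurement divided by that of the vehicle-treated control group.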

[1] = dose: 50.0 mg/kg/injection, schedule: Q01DX009 (ip), vehicle: saline with Tween-80
[2] = dose: 100.0 mg/kg/injection, schedule: Q01DX009 (ip), vehicle: saline with Tween-80
[3] = dose: 200.0 mg/kg/injection, schedule: Q01DX009 (ip), vehicle: saline with Tween-80
[4] = dose: 12.5 mg/kg/injection, schedule: Q01DX009 (ip), vehicle: saline with Tween-80
[5] = dose: 100.0 mg/kg/injection, schedule: Q01DX001 (ip), vehicle: saline with Tween-80
[6] = dose: 200.0 mg/kg/injection, schedule: Q01DX001 (ip), vehicle: saline with Tween-80
[7] = dose: 400.0 mg/kg/injection, schedule: Q01DX001 (ip), vehicle: saline with Tween-80
[8] = dose: 100.0 mg/kg/injection, schedule: Q04DX003 (ip), vehicle: saline with Tween-80
[9] = dose: 200.0 mg/kg/injection, schedule: Q04DX003 (ip), vehicle: saline with Tween-80

## O=S(=O)([O][Hg][CH2]C1Cc2ccccc2O1)[O][Hg][CH2]C1Cc2ccccc2O1 (stereo not given)
dose: 11.0 mg/kg/injection, schedule: Q01DX009 (ip), vehicle: saline with Tween-80
  T/C: 118 % of control

## CCn1c(-c2ccccc2)nc(=S)c(C(=O)c2ccccc2)c1SC
dose: 100.0 mg/kg/injection, schedule: Q04DX003 (ip), vehicle: Klucel (hydroxypropylcellulose) (HPC)
  T/C: 98 % of control
dose: 200.0 mg/kg/injection, schedule: Q04DX003 (ip), vehicle: Klucel (hydroxypropylcellulose) (HPC)
  T/C: 100 % of control
dose: 400.0 mg/kg/injection, schedule: Q04DX003 (ip), vehicle: Klucel (hydroxypropylcellulose) (HPC)
  T/C: 100 % of control

## CC(C)CCC1=CC(=O)c2c(O)ccc(O)c2C1=O
dose: 2.5 mg/kg/injection, schedule: Q04DX002 (ip), vehicle: DMSO
  T/C: 97 % of control
dose: 5.0 mg/kg/injection, schedule: Q04DX002 (ip), vehicle: DMSO
  T/C: 97 % of control
dose: 10.0 mg/kg/injection, schedule: Q04DX002 (ip), vehicle: DMSO
  T/C: 95 % of control

## COc1cc2cc(c1Cl)N(C)C(=O)CC(OC(=O)C(C)C)C1(C)OC1C(C)C1CC(O)(NC(=O)O1)C(OC)/C=C/C=C(C)C2 (stereo not given)
dose: 3.1 micrograms/kg/injection, schedule: Q01DX009 (ip), vehicle: saline + alcohol
  T/C: 114 % of control
dose: 6.2 micrograms/kg/injection, schedule: Q01DX009 (ip), vehicle: saline + alcohol
  T/C: 119 % of control
dose: 6.25 micrograms/kg/injection, schedule: Q01DX009 (ip), vehicle: saline + alcohol
  T/C: 115 % of control
dose: 100.0 micrograms/kg/injection, schedule: Q01DX009 (ip), vehicle: saline + alcohol
  T/C: 106 % of control and 86 % of control
dose: 200.0 micrograms/kg/injection, schedule: Q01DX009 (ip), vehicle: saline + alcohol
  T/C: 94 % of control

## CCN(CC)CCOC(=O)c1ccc(N)c2ccccc12
dose: 50.0 mg/kg/injection, schedule: Q01DX005 (ip), vehicle: saline with Tween-80
  T/C: 103 % of control
dose: 100.0 mg/kg/injection, schedule: Q01DX005 (ip), vehicle: saline with Tween-80
  T/C: 100 % of control

## CCC[CH2][Pb]([CH2]CCC)([O]C(C)=O)[O]C(C)=O
dose: 1.56 mg/kg/injection, schedule: Q04DX003 (ip), vehicle: saline
  T/C: 114 % of control
dose: 3.13 mg/kg/injection, schedule: Q04DX003 (ip), vehicle: saline
  T/C: 118 % of control
dose: 6.25 mg/kg/injection, schedule: Q04DX003 (ip), vehicle: saline
  T/C: 120 % of control

## COC(=O)C1CCc2c(cnn2-c2ccccn2)C1 (stereo not given)
[1]
  T/C: 97 % of control
[2]
  T/C: 101 % of control
[3]
  T/C: 100 % of control

## COc1ccc2c(-c3ccc(O)cc3)c(-c3ccccc3)c(=O)oc2c1
dose: 60.0 mg/kg/injection, schedule: Q01DX005 (ip), vehicle: saline with Tween-80
  T/C: 86 % of control
dose: 120.0 mg/kg/injection, schedule: Q01DX005 (ip), vehicle: saline with Tween-80
  T/C: 97 % of control
dose: 240.0 mg/kg/injection, schedule: Q01DX005 (ip), vehicle: saline with Tween-80
  T/C: 89 % of control

## O=[N+]([O-])c1ccc2c(c1)Oc1cccnc1[Se]2
dose: 60.0 mg/kg/injection, schedule: Q01DX005 (ip), vehicle: Klucel (hydroxypropylcellulose) (HPC)
  T/C: 105 % of control
dose: 120.0 mg/kg/injection, schedule: Q01DX005 (ip), vehicle: Klucel (hydroxypropylcellulose) (HPC)
  T/C: 95 % of control
dose: 240.0 mg/kg/injection, schedule: Q01DX005 (ip), vehicle: Klucel (hydroxypropylcellulose) (HPC)
  T/C: 90 % of control

## CN(C)CCCN1c2ccccc2Sc2ccc(C(F)(F)F)cc21
[4]
  T/C: 123 % of control

## Cc1ccc2c(ccc3c[n+]4ccccc4c(C)c32)c1
dose: 2.2 mg/kg/injection, schedule: Q01DX009 (ip), vehicle: saline with Tween-80
  T/C: 122 % of control
dose: 3.3 mg/kg/injection, schedule: Q01DX009 (ip), vehicle: saline with Tween-80
  T/C: 114 % of control
dose: 5.0 mg/kg/injection, schedule: Q01DX009 (ip), vehicle: saline with Tween-80
  T/C: 122 % of control
dose: 6.25 mg/kg/injection, schedule: Q04DX003 (ip), vehicle: other
  T/C: 112 % of control
dose: 7.5 mg/kg/injection, schedule: Q01DX009 (ip), vehicle: saline with Tween-80
  T/C: 120 % of control
dose: 12.5 mg/kg/injection, schedule: Q04DX003 (ip), vehicle: other
  T/C: 112 % of control
dose: 25.0 mg/kg/injection, schedule: Q04DX003 (ip), vehicle: other
  T/C: 108 % of control

## CN(O)C1=c2ccccc2=NC1=O
[1]
  T/C: 91 % of control
[2]
  T/C: 92 % of control
[3]
  T/C: 114 % of control

## O=S(=O)(O)C(O)c1cccnc1 (stereo not given)
dose: 100.0 mg/kg/injection, schedule: Q01DX009 (ip), vehicle: saline sonified
  T/C: 100 % of control
dose: 200.0 mg/kg/injection, schedule: Q01DX009 (ip), vehicle: saline sonified
  T/C: 100 % of control
dose: 400.0 mg/kg/injection, schedule: Q01DX009 (ip), vehicle: saline sonified
  T/C: 100 % of control

## CCc1cccc2c(NCCCCCCCCNc3c4ccccc4nc4c(CC)cccc34)c3ccccc3nc12
dose: 0.63 mg/kg/injection, schedule: Q01DX005 (ip), vehicle: other
  T/C: 110 % of control
dose: 1.25 mg/kg/injection, schedule: Q01DX005 (ip), vehicle: other
  T/C: 110 % of control
dose: 2.5 mg/kg/injection, schedule: Q01DX005 (ip), vehicle: other
  T/C: 122 % of control
dose: 3.75 mg/kg/injection, schedule: Q01DX005 (ip), vehicle: other
  T/C: 104 % of control
dose: 5.0 mg/kg/injection, schedule: Q01DX005 (ip), vehicle: other
  T/C: 113 % of control
dose: 7.5 mg/kg/injection, schedule: Q01DX005 (ip), vehicle: other
  T/C: 118 % of control
dose: 10.0 mg/kg/injection, schedule: Q## X009 (ip), vehicle: lactic acid
  T/C: 110 % of control

## O=C(/C(=C(/[O-])C(F)(F)F)[n+]1ccc2ccccc2c1)C(F)(F)F
[5]
  T/C: 100 % of control
[6]
  T/C: 100 % of control and 112 % of control
[7]
  T/C: 104 % of control and 97 % of control

## COc1ccc(/C=C/C(CCN(C)C)=N/NC(=S)Nc2ccc(Cl)cc2)cc1
[5]
  T/C: 89 % of control
[6]
  T/C: 90 % of control
[7]
  T/C: 90 % of control

## CC1CC(C)(C)N=C(CCC2CCCCCC2=O)O1 (stereo not given)
dose: 50.0 mg/kg/injection, schedule: Q04DX003 (ip), vehicle: saline with Tween-80
  T/C: 100 % of control
[8]
  T/C: 100 % of control
[9]
  T/C: 100 % of control

## Cc1ccc(NC(=O)Nc2nccs2)cc1
dose: 12.5 mg/kg/injection, schedule: Q01DX009 (ip), vehicle: distilled water + Tween-80
  T/C: 101 % of control
dose: 25.0 mg/kg/injection, schedule: Q01DX009 (ip), vehicle: distilled water + Tween-80
  T/C: 99 % of control
dose: 50.0 mg/kg/injection, schedule: Q01DX009 (ip), vehicle: distilled water + Tween-80
  T/C: 90 % of control
dose: 100.0 mg/kg/injection, schedule: Q01DX009 (ip), vehicle: distilled water + Tween-80
  T/C: 99 % of control
dose: 200.0 mg/kg/injection, schedule: Q01DX009 (ip), vehicle: distilled water + Tween-80
  T/C: 105 % of control

## COc1ccc(/C=C2/SC(=S)N(Cc3ccco3)C2=O)cc1
dose: 6.25 mg/kg/injection, schedule: Q01DX009 (ip), vehicle: saline with Tween-80
  T/C: 100 % of control
[4]
  T/C: 91 % of control
[3]
  T/C: 86 % of control

## CCOP(=O)(NNP(=O)(OCC)OCC)OCC
dose: 50.0 mg/kg/injection, schedule: Q01DX009 (ip), vehicle: saline
  T/C: 106 % of control
dose: 100.0 mg/kg/injection, schedule: Q01DX009 (ip), vehicle: saline
  T/C: 103 % of control
dose: 200.0 mg/kg/injection, schedule: Q01DX009 (ip), vehicle: saline
  T/C: 104 % of control

## Cc1ccc(S(=O)(=O)OCCN(CCOS(=O)(=O)c2ccc(C)cc2)c2ccc(C=O)cc2)cc1
dose: 0.78 mg/kg/injection, schedule: Q04DX003 (ip), vehicle: saline with Tween-80
  T/C: 100 % of control
dose: 1.56 mg/kg/injection, schedule: Q04DX003 (ip), vehicle: saline with Tween-80
  T/C: 113 % of control
dose: 3.13 mg/kg/injection, schedule: Q04DX003 (ip), vehicle: saline with Tween-80
  T/C: 100 % of control
dose: 12.5 mg/kg/injection, schedule: Q04DX003 (ip), vehicle: saline with Tween-80
  T/C: 154 % of control
dose: 25.0 mg/kg/injection, schedule: Q04DX003 (ip), vehicle: saline with Tween-80
  T/C: 159 % of control
dose: 66.0 mg/kg/injection, schedule: Q04DX003 (ip), vehicle: saline with Tween-80
  T/C: 158 % of control
[8]
  T/C: 170 % of control and 172 % of control and 187 % of control
dose: 150.0 mg/kg/injection, schedule: Q04DX003 (ip), vehicle: saline with Tween-80
  T/C: 183 % of control
[3]
  T/C: 95 % of control
[9]
  T/C: 162 % of control

## CCC(c1ccc(OC)cc1)C(NCC(=O)N/N=C1\C[C@@H]2[C@H](CC[C@]3(C)[C@@H](O)CC[C@@H]23)c2c(C)cc(O)cc21)c1ccc(OC)cc1 (stereo not given in full)
[5]
  T/C: 106 % of control
[6]
  T/C: 107 % of control
[7]
  T/C: 101 % of control
